Structures are written as SMILES. Read-outs that look alike come from different tables or passages of the source. A value given as a limit tells only on which side of the number the result lay.

Data set [1] is described as follows: Leishmania donovani infected macrophage assay. It is filed as cell-based. The following applies: mouse, J774A.1 cytotoxicity / L. donovani activity; read-out: selectivity index (SI, mammalian cytotoxicity/antiprotozoal activity). Here is the method:
(§1) The full suite of Dendrilla antarctica-derived compounds, with the exception of darwinolide (1) and dendrillin D (12) owing to mass limitations, were tested against Leishmania donovani infected macrophages, liver-stage sporozoites in primary human hepatocytes, and against MRSA biofilm. Cytotoxicity was evaluated using the mammalian J774A.1 cell line in L. donovani-active compounds, while primary human hepatocytes were evaluated for malaria-active compounds.
(§2) The results from the Leishmania donovani assay (Table 2) indicate activity commensurate with the positive control and current standard of care, miltefosine (2.9 µM) is observed in aplysulphurin (2, 3.1 μM), tetrahydroaplysulphurin-1 (4, 3.5 μM), dendrillin B (10, 3.5 μM), 8-ketodihydrogracilin (13, 4.5 μM), and triol 15 (4.5 μM).
(§3) The Leishmania donovani cell line infected macrophage assay and cytotoxicity screen were conducted as previously described.

Data set [2] relates to Plasmodium falciparum. The data set can be described thus: Liver-stage Plasmodium falciparum assay in primary human hepatocytes. It is filed as cell-based. The following applies: for inhibition at 5 µg/mL: Plasmodium falciparum, Hepatocyte, 5 μg/mL, infected primary human hepatocytes, % (Standard Deviation), n = 3, read-out: Plasmodium falciparum Inhibition at 5 μg/mL Infected PHHs. On the procedure:
as §1
(§4) For the Plasmodium falciparum infected liver cells, screening was conducted at a fixed concentration of 5 µg/mL for each compound, and activities representing 60% inhibition and 100% inhibition are reported in comparison with the positive control primaquine. […] Aplysulphurin (2) at ≤13 μM was also active at the highest level.
(§5) The liver-stage Plasmodium falciparum assay was conducted as previously reported.

Data set [3] has as its system primary human hepatocytes. Nature of the data set: Cytotoxicity towards uninfected primary human hepatocytes. It is filed as cell-based. The conditions noted are these: for inhibition at 5 µg/mL: Hepatocyte, 5 μg/mL, uninfected primary human hepatocytes, % (Standard Deviation), n = 3, read-out: Plasmodium falciparum Inhibition at 5 μg/mL Uninfected PHHs. On the procedure:
as §1, §4, §5

The subject of a further data set is MRSA biofilm. Nature of the data set: MRSA biofilm eradication assay. The following applies: for inhibition at 25 µg/mL / inhibition at 50 µg/mL / inhibition at 100 µg/mL: Staphylococcus aureus, MRSA; for inhibition at 50 µg/mL: 50 μg/mL; for inhibition at 100 µg/mL: 100 μg/mL. The class given is cell-based, methicillin-resistant Staphylococcus aureus. On the procedure: The MRSA biofilm assay was carried out at concentrations of 100, 50, and 25 µg/mL for each compound, and activities representing 50% and 90% eradication are reported.
The MRSA biofilm assay was conducted as previously reported.

The subject of data set [4] is Leishmania donovani. Further details: method as in PMID 32281798. The conditions noted are these: J774A.1 macrophages, single point determination, ref [15], read-out: Leishmania donovani IC50 Infected Macrophage, cited from earlier work.
Data set [5] relates to J774A.1 macrophages. Further details: method as in PMID 32281798. The following applies: ref [15], cited from earlier work.
Data set [6] has as its system Leishmania donovani. Nature of the data set: Leishmania donovani infected macrophage assay. The class given is cell-based. The following applies: for IC50: single point determination, read-out: Leishmania donovani IC50 Infected Macrophage. Here is the method:
as §1, §2, §3

Data set [7] is described as follows: J774A.1-cell cytotoxicity assay (uninfected macrophage). The class given is cell-based. The conditions noted are these: mouse, J774A.1 macrophage cells (uninfected); Table 3; unit not given (μM in Table 2); read-out: J774 Cytotoxiciy. Here is the method:
as §1, §3

Data set [8] deals with J774A.1 macrophages. The data set is described as above. The following applies: Mus musculus, J774.A1; cytotoxicity, uninfected J774A.1 macrophages; single point determination; read-out: Leishmania donovani IC50 Uninfected Macrophage. The class given is cell-based. On the procedure:
as §1, §3

Data set [9] has as its system Plasmodium falciparum. Nature of the data set: Liver-stage Plasmodium falciparum assay in primary human hepatocytes. The class given is cell-based. The conditions noted are these: Table 3; SI = J774 IC50/pathogen IC50.
Data set [10] concerns methicillin-resistant Staphylococcus aureus (MRSA) biofilm. Further details: method as in PMID 27175857. The following applies: ref [17]; cited from earlier work.

As for `COC(=O)[C@H](C)c1c([C@@]2(C)CCCC(C)(C)C2)ccc2c1C(=O)OC2` [Membranolide (5), membranolide], the selectivity ratio in [1] was 8. Besides, the inhibition at 5 µg/mL in the data set on Plasmodium falciparum [2] stood at 59.7%; in [3] it was 0%. In the data set on MRSA biofilm (25 μg/mL, % (Std. Dev.), n = 6), the “MRSA Biofilm Inhibition 25 μg/mL” value is 99.7 (0.1) %. Further, in the data set with MRSA biofilm (25 μg/mL, % (Std. Dev.), n = 6), the inhibition at 25 µg/mL is about 100%. Also, the inhibition at 50 µg/mL in the data set with MRSA biofilm (% (Std. Dev.), n = 6) came to 99.9%. This molecule also yielded an inhibition at 100 µg/mL with MRSA biofilm (% (Std. Dev.), n = 6) of 100%. Also, the “Pathogen Activity, MRSA Biofilm” value in the data set with MRSA biofilm (Table 3, no unit printed there (58 μM)) turned out to be 58. The “concentration achieving 90% eradication of MRSA biofilm” value in the data set with MRSA biofilm (lowest concentration tested, 25 μg/mL, in molar units) amounted to 58 µM; with MRSA biofilm (tested at 100, 50 and 25 µg/mL, 90% eradication) it was 25 µg/mL. The IC50 was under 10 µM in the data set with Leishmania donovani [4] (listed as 5); 9.7 µM in the data set with Leishmania donovani [4]; 77 µM in the data set on J774A.1 macrophages [5] (Table 3, no unit printed there, same values marked as from reference in Table 2, read-out: J774 Cytotoxiciy); 76.8 µM in the data set with J774A.1 macrophages [5] (cytotoxicity, uninfected J774A.1 macrophages, single point determination, listed as membranolide (5), read-out: Leishmania donovani IC50 Uninfected Macrophage); 77 µM in the data set with J774A.1 macrophages [5] (cytotoxicity, uninfected J774A.1 macrophages, single point determination, read-out: Leishmania donovani IC50 Uninfected Macrophage).

For the molecule `C[C@@H](CO)c1c([C@@]2(C)CCCC(C)(C)C2)ccc(CO)c1CO` [Triol (15)], the selectivity ratio in [1] is over 38. Besides, the “selectivity index (SI, mammalian cytotoxicity/antiprotozoal activity)” value with Leishmania donovani [6] (J774A.1 cytotoxicity / L. donovani activity) is about 40. The IC50 is 4.2 µM in the data set on Leishmania donovani [6] (J774A.1 macrophages); 4.5 µM in the data set with Leishmania donovani [6] (Leishmania donovani, J774.A1, J774A.1 macrophages); over 160 µM in data set [7]; over 160 µM with J774A.1 macrophages [8]. Besides, the inhibition at 5 µg/mL in the data set on Plasmodium falciparum [2] turned out to be 81%; in data set [3], 2.2%. The “Pathogen Activity, Plasmodium falciparum” value in the data set on Plasmodium falciparum [2] (Table 3, no unit printed there (≤16 μM)) was at most 16. Moreover, the “inhibition of the parasite cultures (Plasmodium falciparum)” value in the data set on Plasmodium falciparum [2] (at low micromolar concentrations) is reported as 100%. In addition, the “concentration with 100% inhibition against P. falciparum infected liver cells” value in the data set with Plasmodium falciparum [2] (screen at fixed 5 µg/mL, 100% inhibition level (highest level)) was at most 16 µM. Moreover, in [3] (5 µg/mL screen), the “cytotoxicity towards uninfected primary human hepatocytes (in words)” value is recorded as “no discernable cytotoxicity”. The molecule also gave an inhibition at 25 µg/mL in the data set on MRSA biofilm (25 μg/mL, % (Std. Dev.), n = 6) of 2.6%. The molecule also came in with an inhibition at 50 µg/mL in the data set on MRSA biofilm (% (Std. Dev.), n = 6) of 12.3%. Moreover, in the data set on MRSA biofilm (% (Std. Dev.), n = 6), the inhibition at 100 µg/mL was 9.3%. Further, the “Selectivity Index (SI), Plasmodium falciparum” value in the data set with Plasmodium falciparum [9] was over 10.

Consider `CC(=O)O[C@@H]1O[C@H]2OC(=O)C3=C(C)[C@@H]([C@@]4(C)CCCC(C)(C)C4)CC[C@@H]1[C@H]32` [darwinolide (1), darwinolide], for which the “potency against MRSA biofilm relative to planktonic MRSA” value in [10] is given as “four times more potent against the biofilm than it was against planktonic MRSA”.

The record behind these values is publication PMC7344659, “Bioactivity of Spongian Diterpenoid Scaffolds from the Antarctic Sponge Dendrilla antarctica” (Marine Drugs, 2020).
